Assay results taken from US20210030796A1, “METHOD FOR PRODUCING ANTIGEN-SPECIFIC T CELLS” (Thyas Co. Ltd., priority 2019, published 2021).

Tests used:
[1] = test system: mononuclear cells from peripheral blood of a healthy subject (CD137+ T cells); test: T cell activation by EBV-LMP2A antigenic peptide stimulation, CD137 flow cytometry; assay type: cell-based, human; conditions: addition of CMA (0.3 to 3 μM per Example 1), two samples of PBMC from a healthy subject
Procedure: Re-inoculate in a 24-well plate. Add 0.3 to 3 μM Concanamycin A to a medium and incubate at 37° C. and 5% CO2 for 2 hours. Add 10 μg/ml EBV LMP2A peptide and culture at 37° C. and 5% CO2 for 24 hours. Suspend 2×10^6 cells of peripheral blood mononuclear cells (PBMC) separated from peripheral blood of a healthy subject in a MEM-alpha medium added with 10% FBS, 200 U IL-2 and 20 μg/ml IL-15, and add 10 μg/ml EBV LMP2A peptide. Start culturing at 37° C. and 5% CO2. Replace the medium and divide the wells every 2 to 5 days according to amplification rate of the cells. Culture for 12 days. Collect the cells on day 12 and re-inoculate in a 24-well plate at 2×10^6 cells/well. Add 0.3 to 3 μM Concanamycin A to the medium and incubate at 37° C. and 5% CO2 for 2 hours. Then, add 10 μg/ml EBV LMP2A peptide and culture at 37° C. and 5% CO2 for 24 hours. After 24 hours, stain the cells with CD8-PerCP/Cy5.5 antibody and CD137-PE antibody, and analyze using a flow cytometer (BD FACS Aria II).

[2] = test system: mononuclear cells from peripheral blood of a leukemia patient (CD137-expressing T cells); test: T cell activation by WT1 antigenic peptide stimulation, CD137 expression; assay type: cell-based, human; conditions: FIG. 3; medium added with 1 μM CMA; two samples of PBMC from a leukemia patient

C/C=C/[C@H]1O[C@@](O)([C@@H](C)[C@H](O)[C@H](C)[C@H]2OC(=O)/C(OC)=C/C(C)=C/[C@@H](C)[C@@H](O)[C@@H](CC)[C@@H](O)[C@H](C)C/C(C)=C/C=C/[C@@H]2OC)C[C@@H](O[C@H]2C[C@@H](O)[C@H](OC(N)=O)[C@@H](C)O2)[C@@H]1C [Concanamycin A]
percentage of CD137+ T cells activated with EBV-LMP2A peptide ([1]; FIG. 1): increased | number of CD137+ T cells activated with EBV-LMP2A peptide ([1]; FIG. 2): increased | percentage of T cells activated (CD137-expressing) by WT1 peptide stimulation [2]: induced
